In this experiment the test system is human naïve CD4+ T cells. Kind of experiment: T cell proliferation (CellTrace Violet dilution). Format: cell-based. The protocol:
FIG. 10. […] (A) Kinetics of T cell proliferation. Human naïve CD4+ T cells were labeled with CellTraceViolet (CTV) and activated in Ctrl medium or in L-Arg medium or in medium supplemented with 3 mM D-arginine or 3 mM L-arginine together with 3 mM L-lysine. Cell divisions were monitored at 48 h and 72 h by flow cytometry. (B) CTV-labeled CD4+ T cells were activated in normal medium or L-Arg medium and the dilution of CTV was measured over time by flow cytometry. n=5 from two donors. (C) 3H-L-arginine uptake by 3 day-activated CD4+ T cells during a 15 minutes pulse. Where indicated, 3 mM L-arginine, D-arginine or L-lysine was added to the culture medium as a competitive uptake inhibitor. n=7 for control, n=9 for L-Arg, n=5 for D-Arg, and n=9 for L-Lys. Bars represent the s.e.m.

Each structure is given as a SMILES string.

Turning to `N=C(N)NCCC[C@H](N)C(=O)O` [L-arginine], the onset of proliferation result (3 mM in medium) was “slightly delayed onset”. Moreover, the “doubling rates once proliferation started” value (L-arginine-supplemented medium) is “comparable to controls”.
